Results reported in DBAASP.
≈ marks a conversion by molar mass, not a printed value. Each block holds one compound with its values, some of them ahead of it.

Experiments:
Test in all cases: ≥ marks a high value that may be exact or a test limit, other limits are often not marked, values filed in µg/mL are converted to µM
[1] = test system: Staphylococcus aureus ATCC 2592
[2] = test system: Candida albicans ATCC 2002
[3] = test system: Escherichia coli ATCC 25922
[4] = test system: Bacillus subtilis ATCC 6633
[5] = test system: Shigella dysenteriae
[6] = test system: Bacillus subtilis ATCC 23857
[7] = test system: Staphylococcus aureus ATCC 6538
[8] = test system: Pseudomonas aeruginosa ATCC 9027
[9] = test system: Klebsiella pneumoniae ATCC 700603
[10] = test system: Staphylococcus aureus ATCC 25923
[11] = test system: Escherichia coli
[12] = test system: Staphylococcus epidermidis ATCC 12228
[13] = test system: Micrococcus luteus ATCC 9341
[14] = test system: Pseudomonas aeruginosa
[15] = test system: Bacillus cereus
[16] = test system: Escherichia coli JW0013

Compound: CC[C@H](C)[C@H](NC(=O)[C@H](CC(C)C)NC(=O)[C@@H](N)Cc1ccccc1)C(=O)N[C@H](C(=O)N[C@@H](CCCN=C(N)N)C(=O)N[C@@H](CCCN=C(N)N)C(=O)N1CCC[C@H]1C(=O)N[C@H](C(=O)N[C@H](C(=O)N[C@@H](CC(C)C)C(=O)NCC(=O)N[C@@H](CC(C)C)C(=O)N[C@@H](CC(C)C)C(N)=O)C(C)C)[C@@H](C)CC)[C@@H](C)CC [FLIIRRPIVLGLL]
- MIC [1]: 6.57 µM (≈ 9.99 µg/mL)
- MIC [2]: 8.21 µM (≈ 12.5 µg/mL)
- MIC [3]: 19.7 µM (≈ 30 µg/mL)

Compound: CC[C@H](C)[C@@H]1NC(=O)[C@@H]2CCCN2C(=O)[C@@H](NC(=O)[C@H](Cc2ccccc2)NC(=O)[C@H](CC(C)C)NC(=O)[C@@H](NC(=O)[C@@H]2CCCN2C(=O)[C@@H](NC(=O)[C@@H](NC(=O)[C@H](CCCCN)NC(=O)[C@H](Cc2ccccc2)NC(=O)[C@H](C)NC(=O)[C@@H](NC(=O)[C@H](CCCCN)NC(=O)[C@H](CC(C)C)NC(=O)[C@H](CC(C)C)NC(=O)[C@@H](NC(=O)[C@H](CO)NC(=O)[C@H](CC(C)C)NC(=O)[C@@H](N)Cc2ccccc2)[C@@H](C)O)C(C)C)C(C)C)C(C)C)[C@@H](C)O)CSSC[C@@H](C(N)=O)NC(=O)[C@H](CCCCN)NC(=O)[C@H](CCCCN)NC(=O)[C@H]([C@@H](C)O)NC1=O [FLSTLLKVAFKVVPTLFCPITKKC]
- MIC [4]: 1.74 µM (≈ 4.69 µg/mL)
- MIC [5]: 3.48 µM (≈ 9.37 µg/mL)
- MIC [1]: 0.434 µM (≈ 1.17 µg/mL)
- MIC [2]: 1.74 µM (≈ 4.69 µg/mL)
- MIC [3]: 6.95 µM (≈ 18.7 µg/mL)

Compound: CC[C@H](C)[C@H](NC(=O)CN)C(=O)N[C@H](C(=O)N[C@@H](C)C(=O)NCC(=O)N[C@H](C(=O)N[C@H](C(=O)N[C@H](C(=O)N[C@@H](CCCCN)C(=O)N[C@H](C(=O)N[C@@H](CCCCN)C(=O)N[C@@H](C)C(N)=O)[C@@H](C)CC)[C@@H](C)CC)[C@@H](C)CC)[C@@H](C)CC)[C@@H](C)CC [GIIAGIIIKIKA]
- MIC [6]: ≥ 128 µM
- MIC [3]: > 128 µM

Compound: CC[C@H](C)[C@H](NC(=O)[C@H](CCCCN)NC(=O)[C@H](CCCCN)NC(=O)[C@@H](NC(=O)[C@@H](NC(=O)[C@H](CCCCN)NC(=O)[C@H](CCCCN)NC(=O)[C@@H](NC(=O)[C@@H](NC(=O)[C@H](CCCCN)NC(=O)[C@H](CCCCN)NC(=O)[C@@H](NC(=O)[C@@H](NC(=O)CN)[C@@H](C)CC)C(C)C)[C@@H](C)CC)C(C)C)[C@@H](C)CC)C(C)C)C(N)=O [GIVKKIVKKIVKKI]
- MIC [7]: 128 µM (≈ 204 µg/mL)
- MIC [6]: 1.7 µM (≈ 2.71 µg/mL)
- MIC [3]: 22 µM (≈ 35 µg/mL)
- MIC [8]: 21 µM (≈ 33.5 µg/mL)

Compound: CC[C@H](C)[C@H](NC(=O)[C@H](CCCCN)NC(=O)[C@H](CCCCN)NC(=O)[C@H](C)NC(=O)[C@@H](NC(=O)[C@H](C)NC(=O)[C@H](CC(C)C)NC(=O)[C@H](CC(C)C)NC(=O)[C@H](C)NC(=O)[C@H](CCCCN)NC(=O)[C@H](CC(C)C)NC(=O)[C@H](CC(N)=O)NC(=O)CN)C(C)C)C(=O)N[C@@H](CC(C)C)C(N)=O [GNLKALLAVAKKIL]
- MIC [6]: 4 µM (≈ 5.8 µg/mL)
- MIC [9]: 16 µM (≈ 23.2 µg/mL)
- MIC [10]: 32 µM (≈ 46.4 µg/mL)
- MIC [11]: 8 µM (≈ 11.6 µg/mL)

Compound: CC[C@H](C)[C@H](N)C(=O)N[C@@H](CC(C)C)C(=O)NCC(=O)N[C@H](C(=O)N[C@H](C(=O)N[C@@H](CC(C)C)C(=O)NCC(=O)N[C@@H](CC(C)C)C(=O)N[C@@H](CC(C)C)C(=O)N[C@@H](CCCCN)C(=O)N[C@@H](C)C(=O)N[C@@H](CC(C)C)C(N)=O)[C@@H](C)CC)[C@@H](C)O [ILGTILGLLKAL]
- MIC [12]: 16 µM (≈ 19.6 µg/mL)
- MIC [6]: 8 µM (≈ 9.79 µg/mL)
- MIC [10]: 16 µM (≈ 19.6 µg/mL)
- MIC [3]: 64 µM (≈ 78.3 µg/mL)

Second part, the compound after the results:

- MIC [13]: ≥ 100 µM
Compound: CC[C@H](C)[C@H](N)C(=O)N[C@@H](CC(C)C)C(=O)N1CCC[C@H]1C(=O)N[C@@H](Cc1cnc[nH]1)C(=O)N[C@@H](CCCCN)C(=O)N[C@@H](Cc1cnc[nH]1)C(=O)N1CCC[C@H]1C(=O)N[C@@H](Cc1cnc[nH]1)C(=O)N[C@@H](Cc1cnc[nH]1)C(=O)N1CCC[C@H]1C(=O)N[C@@H](Cc1cnc[nH]1)C(=O)N[C@@H](CCCN=C(N)N)C(=O)N[C@@H](CCCN=C(N)N)C(N)=O [ILPHKHPHHPHRR]

- MIC [5]: 2.78 µM (≈ 6.24 µg/mL)
- MIC [14]: 22.3 µM (≈ 49.9 µg/mL)
- MIC [1]: 5.57 µM (≈ 12.5 µg/mL)
- MIC [2]: 22.3 µM (≈ 49.9 µg/mL)
- MIC [3]: 5.57 µM (≈ 12.5 µg/mL)
- MIC [15]: 22.3 µM (≈ 49.9 µg/mL)
Compound: CSCC[C@@H]1NC(=O)[C@H](CC(C)C)NC(=O)[C@H](C)NC(=O)[C@H](CCCN=C(N)N)NC(=O)[C@H](Cc2ccccc2)NC(=O)[C@H](CC(C)C)NC(=O)CNC(=O)[C@H](CCCCN)NC(=O)[C@@H](NC(=O)[C@H](CCCN=C(N)N)NC(=O)[C@@H]2CCCN2C(=O)[C@@H](NC(=O)[C@H](CO)NC(=O)[C@H](Cc2ccc(O)cc2)NC(=O)[C@H](C)NC(=O)[C@@H](N)CCCCN)[C@@H](C)O)CSSC[C@@H](C(=O)N[C@@H](Cc2c[nH]c3ccccc23)C(=O)N[C@@H](CC(C)C)C(N)=O)NC1=O [KAYSTPRCKGLFRALMCWL]

- MIC [16]: 0.687 µM (≈ 1.7 µg/mL)
Compound: CC[C@H](C)[C@H](NC(=O)[C@H](CCCN=C(N)N)NC(=O)[C@H](CCCN=C(N)N)NC(=O)[C@@H]1CCCN1C(=O)[C@@H]1CCCN1C(=O)[C@H](CCCN=C(N)N)NC(=O)[C@H](CCCN=C(N)N)NC(=O)[C@H](CCCN=C(N)N)NC(=O)[C@@H]1CCCN1C(=O)[C@H](CC(C)C)NC(=O)[C@H](CCCN=C(N)N)NC(=O)[C@@H]1CCCN1C(=O)[C@H](CCCCN)NC(=O)[C@H](CCCCN)NC(=O)[C@H](CC(=O)O)NC(=O)[C@@H](N)C(C)C)C(=O)N[C@@H](Cc1ccc(O)cc1)C(=O)N[C@@H](CC(N)=O)C(=O)N[C@@H](CCCN=C(N)N)C(N)=O [VDKKPRLPRRRPPRRIYNR]

- MIC [16]: 0.481 µM (≈ 1.2 µg/mL)
Compound: CC[C@H](C)[C@H](NC(=O)[C@H](CCCN=C(N)N)NC(=O)[C@H](CCCN=C(N)N)NC(=O)[C@@H]1CCCN1C(=O)[C@@H]1CCCN1C(=O)[C@H](CCCN=C(N)N)NC(=O)[C@H](CCCN=C(N)N)NC(=O)[C@H](CCCN=C(N)N)NC(=O)[C@@H]1CCCN1C(=O)[C@H](CCCCN)NC(=O)[C@H](Cc1ccc(O)cc1)NC(=O)[C@@H]1CCCN1C(=O)[C@H](CCCCN)NC(=O)[C@H](CCCCN)NC(=O)[C@H](CC(=O)O)NC(=O)[C@@H](N)C(C)C)C(=O)N[C@@H](Cc1ccc(O)cc1)C(=O)N[C@@H](CC(N)=O)C(=O)N[C@@H](CCCN=C(N)N)C(N)=O [VDKKPYKPRRRPPRRIYNR]

- MIC [16]: 0.628 µM (≈ 1.6 µg/mL)
Compound: CC[C@H](C)[C@H](NC(=O)[C@H](CCCN=C(N)N)NC(=O)[C@H](CCCN=C(N)N)NC(=O)[C@@H]1CCCN1C(=O)[C@@H]1CCCN1C(=O)[C@H](CCCN=C(N)N)NC(=O)[C@H](CCCN=C(N)N)NC(=O)[C@H](CCCN=C(N)N)NC(=O)[C@@H]1CCCN1C(=O)[C@H](CC(C)C)NC(=O)[C@H](Cc1ccc(O)cc1)NC(=O)[C@H](Cc1cnc[nH]1)NC(=O)[C@H](CCCN=C(N)N)NC(=O)[C@H](CCCCN)NC(=O)[C@H](CC(=O)O)NC(=O)[C@@H](N)C(C)C)C(=O)N[C@@H](Cc1ccc(O)cc1)C(=O)N[C@@H](CC(N)=O)C(=O)N[C@@H](CCCN=C(N)N)C(N)=O [VDKRHYLPRRRPPRRIYNR]

- MIC [16]: 1.34 µM (≈ 3.3 µg/mL)
Compound: CC[C@H](C)[C@H](NC(=O)[C@H](CCCN=C(N)N)NC(=O)[C@H](CCCN=C(N)N)NC(=O)[C@@H]1CCCN1C(=O)[C@@H]1CCCN1C(=O)[C@H](CCCN=C(N)N)NC(=O)[C@@H]1CCCN1C(=O)[C@H](CCCN=C(N)N)NC(=O)[C@@H]1CCCN1C(=O)[C@H](CCCCN)NC(=O)[C@H](CCCN=C(N)N)NC(=O)[C@@H]1CCCN1C(=O)[C@H](CCCN=C(N)N)NC(=O)[C@H](CCCCN)NC(=O)[C@H](CC(=O)O)NC(=O)[C@@H](N)C(C)C)C(=O)N[C@@H](Cc1ccc(O)cc1)C(=O)N[C@@H](CC(N)=O)C(=O)N[C@@H](CCCN=C(N)N)C(N)=O [VDKRPRKPRPRPPRRIYNR]

- MIC [16]: 1.24 µM (≈ 3.1 µg/mL)
Compound: CC[C@H](C)[C@H](NC(=O)[C@H](CCCN=C(N)N)NC(=O)[C@H](CCCN=C(N)N)NC(=O)[C@@H]1CCCN1C(=O)[C@@H]1CCCN1C(=O)[C@H](CCCN=C(N)N)NC(=O)[C@H](CCCCN)NC(=O)[C@H](CCCN=C(N)N)NC(=O)[C@@H]1CCCN1C(=O)[C@H](CCCCN)NC(=O)[C@H](Cc1ccc(O)cc1)NC(=O)[C@@H]1CCCN1C(=O)[C@H](CCCN=C(N)N)NC(=O)[C@H](CCCCN)NC(=O)[C@H](CC(=O)O)NC(=O)[C@@H](N)C(C)C)C(=O)N[C@@H](Cc1ccc(O)cc1)C(=O)N[C@@H](CC(N)=O)C(=O)N[C@@H](CCCN=C(N)N)C(N)=O [VDKRPYKPRKRPPRRIYNR]

- MIC [16]: 1.98 µM (≈ 4.8 µg/mL)
Compound: CC[C@H](C)[C@H](NC(=O)[C@H](CCCN=C(N)N)NC(=O)[C@H](CCCN=C(N)N)NC(=O)[C@@H]1CCCN1C(=O)[C@@H]1CCCN1C(=O)[C@H](CCCN=C(N)N)NC(=O)[C@@H]1CCCN1C(=O)[C@H](CCCN=C(N)N)NC(=O)[C@@H]1CCCN1C(=O)[C@H](CC(C)C)NC(=O)[C@H](Cc1ccc(O)cc1)NC(=O)[C@@H]1CCCN1C(=O)[C@@H]1CCCN1C(=O)[C@H](CCCCN)NC(=O)[C@H](Cc1ccccc1)NC(=O)[C@@H](N)C(C)C)C(=O)N[C@@H](Cc1ccc(O)cc1)C(=O)N[C@@H](CC(N)=O)C(=O)N[C@@H](CCCN=C(N)N)C(N)=O [VFKPPYLPRPRPPRRIYNR]
